This passage reports Ke results from ChEMBL document CHEMBL1124272, “Only one pharmacophore is required for the kappa opioid antagonist selectivity of norbinaltorphimine” (J Med Chem, 1988).

In experiment [1] the target is Delta-type opioid receptor (Homo sapiens) (UniProt P41143). Conditions: Cavia porcellus; Ileum; 20 nM.
Description: Antagonistic activity at Opioid receptor delta 1 in electrically stimulated Guinea pig ileum using DADLE as the agonist at 20 nM
In experiment [2] the target is Mu-type opioid receptor (Cavia porcellus) (UniProt P97266). Conditions: Ileum, 100 nM.
Description: Antagonistic activity at Opioid receptor mu 1 in electrically stimulated Guinea pig ileum using morphine as the agonist at 100 nM
Experiment [3] has the same target. Conditions: Ileum, 20 nM.
Description: Antagonistic activity at Opioid receptor mu 1 in electrically stimulated Guinea pig ileum using morphine as the agonist at 20 nM concentration
Experiment [4] concerns the target Kappa-type opioid receptor (Cavia porcellus) (UniProt P41144). Conditions: Ileum, 20 nM.
Description: Antagonistic activity at Opioid receptor kappa 1 in electrically stimulated Guinea pig ileum using ethylketazocine as the agonist at 20 nM concentration
Experiment [5] has as its target Delta-type opioid receptor (Homo sapiens) (UniProt P41143). Particulars: Cavia porcellus; Ileum; 20 nM. The source holds these as a separate data set.
Description: Antagonistic activity at Opioid receptor delta 1 in electrically stimulated Guinea pig ileum using DADLE as the agonist at 20 nM concentration

Chain of Delta-type opioid receptor (Homo sapiens) (P41143 whole entry): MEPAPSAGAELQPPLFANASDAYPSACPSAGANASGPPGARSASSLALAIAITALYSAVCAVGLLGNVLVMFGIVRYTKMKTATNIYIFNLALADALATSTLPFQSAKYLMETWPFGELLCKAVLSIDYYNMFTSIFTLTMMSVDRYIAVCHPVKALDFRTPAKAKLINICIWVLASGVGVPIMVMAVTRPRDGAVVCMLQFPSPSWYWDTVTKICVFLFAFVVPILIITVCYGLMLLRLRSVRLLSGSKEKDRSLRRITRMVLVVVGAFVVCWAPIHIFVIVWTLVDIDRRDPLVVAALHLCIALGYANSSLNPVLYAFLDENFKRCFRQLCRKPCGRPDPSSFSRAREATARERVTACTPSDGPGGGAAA
Chain of Mu-type opioid receptor (Cavia porcellus) (P97266 whole entry): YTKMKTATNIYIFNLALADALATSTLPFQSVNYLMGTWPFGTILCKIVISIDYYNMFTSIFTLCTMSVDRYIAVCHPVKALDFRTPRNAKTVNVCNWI
Chain of Kappa-type opioid receptor (Cavia porcellus) (P41144 whole entry): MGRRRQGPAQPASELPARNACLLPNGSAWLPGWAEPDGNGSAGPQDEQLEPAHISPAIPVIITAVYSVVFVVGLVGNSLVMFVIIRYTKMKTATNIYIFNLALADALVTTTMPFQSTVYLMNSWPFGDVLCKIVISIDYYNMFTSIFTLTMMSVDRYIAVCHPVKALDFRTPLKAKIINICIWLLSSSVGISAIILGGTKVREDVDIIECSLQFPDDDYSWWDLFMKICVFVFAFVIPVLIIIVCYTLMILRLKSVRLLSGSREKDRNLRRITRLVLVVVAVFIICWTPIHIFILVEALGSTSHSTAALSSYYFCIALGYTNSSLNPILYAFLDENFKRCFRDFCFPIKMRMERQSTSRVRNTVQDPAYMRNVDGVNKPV

The compound `Oc1ccc2c3c1O[C@H]1c4[nH]c5c(c4C[C@@]4(O)[C@@H](C2)N(CC2CC2)CC[C@]314)C[C@@]1(O)[C@H]2Cc3ccc(O)c4c3[C@@]1(CCN2CC1CC1)[C@H]5O4` came in with a Ke in experiment [1] of 10 nM.
`Oc1ccc2c3c1O[C@@H]1c4[nH]c5c(c4C[C@]4(O)[C@H](C2)N(CC2CC2)CC[C@@]314)C[C@]1(O)[C@@H]2Cc3ccc(O)c4c3[C@]1(CCN2CC1CC1)[C@@H]5O4` gave a Ke in experiment [2] of 77 nM.
As to `Oc1ccc2c3c1O[C@H]1c4[nH]c5c(c4C[C@@]4(O)[C@@H](C2)N(CC2CC2)CC[C@]314)C[C@]1(O)[C@@H]2Cc3ccc(O)c4c3[C@]1(CCN2CC1CC1)[C@@H]5O4`, the Ke is 1.1 nM in experiment [3], 0.08 nM in experiment [4] and 1.3 nM in experiment [5].
